Results reported in patent US12103919B2, “3-(5-oxy)-1-oxoisoindolin-2-yl)piperidine-2,6-dione derivatives and uses thereof” (NOVARTIS AG, priority 2021, dated 2024).
Like-named read-outs stand apart in the source and are kept apart here.

What was measured:
Fetal Hemoglobin (HbF) = experiment: Small molecule HbF induction assay in erythroid-differentiated mPB CD34+ cells (flow cytometry); assay type: cell-based, human; conditions: highest percentage of cells staining positive for HbF (% HbF+ cells) in fitted dose-response curve; DMSO baseline approximately 30-40%
Description: Cryopreserved primary human CD34^+ hematopoietic stem and progenitor cells were obtained from AllCeIIs, LLC. The CD34^+ cells were isolated from the peripheral blood of healthy donors after mobilization by administration of granulocyte colony-stimulating factor. Cells were differentiated ex vivo toward the erythroid lineage using a 2-phase culture method. In the first phase, cells were cultured in Stemspan™ Serum-Free Expansion Media (SFEM) ([…] Technologies Inc.) supplemented with rhSCF (50 ng/mL, Peprotech®, Inc.), rhlL-6 (50 ng/mL, Peprotech®, Inc.), rhlL-3 (50 ng/mL, Peprotech®, Inc.), and rhFlt3L (50 ng/mL, Peprotech®, Inc.), and 1× antibiotic-antimycotic (Life Technologies, Thermo Fisher Scientific) for 6 days at 37° C. with 5% CO2. During the second phase, cells were cultured in erythroid differentiation media at 5,000 cells/mL in the presence of compound for 7 days at 37° C. with 5% […]. Erythroid Differentiation Media is comprised of IMDM (Life Technologies) supplemented with insulin (10 μg/mL. Sigma Aldrich), heparin (2 U/mL Sigma Aldrich), holo-transferrin (330 μg/mL, Sigma Aldrich), human serum AB (5%, Sigma Aldrich), hydrocortisone (1 μM, […] Technologies), rhSCF (100 ng/mL, Peprotech®, Inc.), rhIL-3 (5 ng/mL. Peprotech®, Inc.), rhEPO (3 U/mL, Peprotech®, Inc.), and 1× antibiotic-antimycotic. All compounds were dissolved and diluted into dimethylsulfoxide (DMSO) and were added to culture media for a final concentration of 0.3% DMSO for testing in a 10-point, 1:3 dilution series starting at 10 uM.
For viability analysis, samples were washed and resuspended in phosphate-buffered saline (PBS) and stained with LlVE/DEAD™ Fixable Violet Dead Cell Stain Kit (Life Technologies, L34963) for 20 minutes. Cells were then washed again with PBS and resuspended in PBS supplemented with 2% fetal bovine serum (FBS), and 2 mM EDTA to prepare for cell surface marker analysis. […]
mPB CD34+ cells were expanded for 6 days, then erythroid differentiated in the presence of compound for 7 days. Cells were fixed, stained and analyzed by flow cytometry. […]

SALL4 = molecular target: T1, SALL4 (Homo sapiens, UniProt Q96SW2+Q9UJQ4); experiment: Quantification of SALL4 protein levels in HiBiT tag fusion protein assay; assay type: cell-based; conditions: for SALL4 Amax: DMSO-normalized, curve-fitted percentage of SALL4-HiBiT remaining at 50 uM, mean over repeats; for DC50: arithmatic mean over number of repeats, 18 hours, top 50 μM, read-out: SALL4 AC50
T1 construct: expressed in transfected cells; host or cells: GripTite 293 MSR cells (293GT), ThermoFisher Scientific, stably transfected by electroporation, blasticidin-selected clones
T1 sequence (Q9UJQ4 whole entry, the tested form may be a part): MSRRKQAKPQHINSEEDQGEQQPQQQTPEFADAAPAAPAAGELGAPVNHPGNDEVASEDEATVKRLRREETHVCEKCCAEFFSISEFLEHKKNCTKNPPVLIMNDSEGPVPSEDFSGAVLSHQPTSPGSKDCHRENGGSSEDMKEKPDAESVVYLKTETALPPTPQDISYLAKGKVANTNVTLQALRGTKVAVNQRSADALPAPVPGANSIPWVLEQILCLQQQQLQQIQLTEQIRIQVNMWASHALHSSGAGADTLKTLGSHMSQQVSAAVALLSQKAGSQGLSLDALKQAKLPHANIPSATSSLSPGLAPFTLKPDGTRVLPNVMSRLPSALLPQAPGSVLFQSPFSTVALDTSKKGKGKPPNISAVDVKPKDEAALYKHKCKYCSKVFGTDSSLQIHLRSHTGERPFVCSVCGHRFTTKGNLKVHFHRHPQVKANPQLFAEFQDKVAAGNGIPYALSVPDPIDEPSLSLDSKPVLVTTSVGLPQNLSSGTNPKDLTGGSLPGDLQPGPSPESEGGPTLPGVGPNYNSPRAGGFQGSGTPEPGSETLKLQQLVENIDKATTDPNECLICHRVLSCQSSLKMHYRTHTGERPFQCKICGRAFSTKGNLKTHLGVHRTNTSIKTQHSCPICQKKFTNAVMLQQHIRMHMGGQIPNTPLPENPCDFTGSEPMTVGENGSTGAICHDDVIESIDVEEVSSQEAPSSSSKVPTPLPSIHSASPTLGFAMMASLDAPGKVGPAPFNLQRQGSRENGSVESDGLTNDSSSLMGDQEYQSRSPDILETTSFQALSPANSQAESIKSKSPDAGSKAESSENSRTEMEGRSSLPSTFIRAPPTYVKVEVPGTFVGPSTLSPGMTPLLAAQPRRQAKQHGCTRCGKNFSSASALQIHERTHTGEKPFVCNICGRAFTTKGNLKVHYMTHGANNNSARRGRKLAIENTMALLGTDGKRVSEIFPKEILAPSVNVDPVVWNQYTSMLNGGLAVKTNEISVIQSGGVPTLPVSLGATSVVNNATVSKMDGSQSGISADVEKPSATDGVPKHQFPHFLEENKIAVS
T1 sequence (Q96SW2 whole entry, the tested form may be a part): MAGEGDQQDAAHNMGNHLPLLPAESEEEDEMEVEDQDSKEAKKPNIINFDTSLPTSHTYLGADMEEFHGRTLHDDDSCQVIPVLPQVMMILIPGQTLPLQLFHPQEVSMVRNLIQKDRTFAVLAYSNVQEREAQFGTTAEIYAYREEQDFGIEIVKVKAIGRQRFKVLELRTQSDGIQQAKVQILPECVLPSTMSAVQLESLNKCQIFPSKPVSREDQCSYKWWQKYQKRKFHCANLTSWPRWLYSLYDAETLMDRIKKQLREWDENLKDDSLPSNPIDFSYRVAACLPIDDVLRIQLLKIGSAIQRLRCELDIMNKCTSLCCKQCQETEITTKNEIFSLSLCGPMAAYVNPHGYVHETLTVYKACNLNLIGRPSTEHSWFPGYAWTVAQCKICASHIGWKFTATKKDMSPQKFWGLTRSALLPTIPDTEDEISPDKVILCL
T1 sequence (Q16531 whole entry partner, the tested form may be a part): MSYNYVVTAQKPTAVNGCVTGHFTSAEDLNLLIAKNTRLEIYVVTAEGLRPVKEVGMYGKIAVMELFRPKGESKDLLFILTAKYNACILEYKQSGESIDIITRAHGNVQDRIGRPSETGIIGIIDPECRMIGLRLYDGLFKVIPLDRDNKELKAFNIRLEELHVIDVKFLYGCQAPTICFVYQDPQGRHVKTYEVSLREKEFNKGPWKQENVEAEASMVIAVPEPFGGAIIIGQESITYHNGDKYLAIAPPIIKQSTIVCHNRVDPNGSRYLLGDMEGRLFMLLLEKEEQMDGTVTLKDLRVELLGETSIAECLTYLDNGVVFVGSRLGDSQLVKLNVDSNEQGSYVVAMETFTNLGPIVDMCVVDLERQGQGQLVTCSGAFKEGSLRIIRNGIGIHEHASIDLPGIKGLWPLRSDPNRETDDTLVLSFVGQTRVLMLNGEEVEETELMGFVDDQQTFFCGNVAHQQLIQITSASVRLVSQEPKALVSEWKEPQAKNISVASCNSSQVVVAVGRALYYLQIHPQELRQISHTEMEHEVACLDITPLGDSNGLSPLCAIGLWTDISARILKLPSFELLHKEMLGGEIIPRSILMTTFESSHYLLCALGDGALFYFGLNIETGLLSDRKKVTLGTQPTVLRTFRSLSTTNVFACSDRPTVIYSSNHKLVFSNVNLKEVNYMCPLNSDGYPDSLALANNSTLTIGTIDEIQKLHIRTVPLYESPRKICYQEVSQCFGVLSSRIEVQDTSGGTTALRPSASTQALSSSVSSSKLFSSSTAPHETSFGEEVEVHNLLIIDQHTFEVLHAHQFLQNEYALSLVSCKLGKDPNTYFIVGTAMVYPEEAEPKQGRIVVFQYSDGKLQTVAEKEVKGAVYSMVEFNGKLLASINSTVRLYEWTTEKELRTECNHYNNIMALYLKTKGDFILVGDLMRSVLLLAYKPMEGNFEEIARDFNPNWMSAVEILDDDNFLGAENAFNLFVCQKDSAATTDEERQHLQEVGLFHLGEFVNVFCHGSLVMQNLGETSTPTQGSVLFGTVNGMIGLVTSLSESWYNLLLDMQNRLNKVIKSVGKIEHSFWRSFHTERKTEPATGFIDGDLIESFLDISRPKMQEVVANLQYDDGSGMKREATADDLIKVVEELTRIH
Description: The HiBiT system from Promega was used to develop high-throughput and quantitative assays to measure changes in SALL4 protein levels in response to compounds. The HiBiT tag was derived from a split Nanoluciferase and has the following protein sequence: […] (SEQ ID No: 1). The complementary fragment of Nanoluciferase (known as LgBiT, from Promega), was added to the HiBiT tag to form an active Nanoluciferase enzyme whose activity can be precisely measured. In this way, the levels of a fusion protein with the HiBiT tag can be quantified in cell lysates.
DNA constructs, based on the Invitrogen pLenti6.2/V5 DEST backbone, were constructed with the HiBiT tag upstream of SALL4 and expressed the fusion protein from a CMV promotor.
To ensure moderate and consistent expression of the HiBiT-SALL4 fusion protein across all cells in the population, stable cell lines were derived from clones. GripTite 293 MSR cells (293GT) from ThermoFisher Scientific (Catalog number: CRL-R79507), were stably transfected with prepared constructs via electroporation. Following recovery, cells were selected by 10 ug/mL blasticidin in culture media.
The levels of HiBiT-SALL4 tagged fusion proteins in compound-treated cell lines were measured as follows:
On day 1, cells were diluted to 1.0×10^6 cells/ml in normal growth medium. 20 μL of cell suspension were plated in each well of a solid white 384-well plate. Plates were incubated overnight in a 37° C. and 5% CO2 humidified tissue culture incubator.
On day 2, serial dilutions of compounds were made in 384-well plates. Compound plates were set up with DMSO in columns 1, 2, 23, 24, and 10-point compound dilution series in column 3-12 and column 13-22. 10 mM stock solution of compound were placed into column 3 or 13 and a 1:5 serial dilution was carried out until there was a 10-point dilution series per compound. 100 nL of diluted compounds were transferred into the plated cells by Echo® (Labcyte) acoustic transfer. The highest concentration of compound was 50 μM. Plates were incubated overnight (18 hours) in a 37° C. and 5% CO2 humidified tissue culture incubator.
On day 3, plates were removed from the incubator and allowed to equilibrate at room temperature for 60 minutes. HiBiT substrate (Nano-Glo® HiBit Lytic Detection System, Promega Catalogue number: N3050) was added as described by the manufacturers protocols. Plates were incubated at room temperature for 30 minutes and luminescence was read using an EnVision® reader (PerkinElmer®). Data was analyzed and visualized using the Spotfire® software package.
SALL4 Amax reflects the DMSO-normalized, curve-fitted percentage of SALL4-HiBiT remaining at 50 uM. It was calculated by normalizing DMSO controls to 100%, parametric curve fitting of the dose response data (10-point, 5-fold), followed by calculation of response at 50 uM using the fitted equation.
This assay produced a range of SALL4 AC50 and Amax values over several repeat runs due to normal variations in the assay. For a comparison to the compounds described in PCT/IB2020/062070, the arithmatic mean values are reported over the number of repeats specified. […] The compounds of the present disclosure are therefore expected to have improved toxicological properties (Matyskiela, M. E., Couto, S., Zheng, X. et al. SALL4 mediates teratogenicity as a thalidomide-dependent cereblon substrate. Nat Chem Biol 14, 981-987 (2018); Donovan, K. A. et al. Thalidomide promotes degradation of SALL4, a transcription factor Implicated in Duane Radial Ray syndrome. eLife 2018; 7:e38430).

WIZ = molecular target: T2, WIZ (Homo sapiens, UniProt O95785+Q96SW2); experiment: Quantification of WIZ protein levels in HiBit tag fusion protein assay (293T cells); assay type: cell-based; set-up: Dmax: dose or concentration left out as unconfirmed
T2 construct: expressed in transfected cells
T2 sequence (O95785 whole entry, the tested form may be a part): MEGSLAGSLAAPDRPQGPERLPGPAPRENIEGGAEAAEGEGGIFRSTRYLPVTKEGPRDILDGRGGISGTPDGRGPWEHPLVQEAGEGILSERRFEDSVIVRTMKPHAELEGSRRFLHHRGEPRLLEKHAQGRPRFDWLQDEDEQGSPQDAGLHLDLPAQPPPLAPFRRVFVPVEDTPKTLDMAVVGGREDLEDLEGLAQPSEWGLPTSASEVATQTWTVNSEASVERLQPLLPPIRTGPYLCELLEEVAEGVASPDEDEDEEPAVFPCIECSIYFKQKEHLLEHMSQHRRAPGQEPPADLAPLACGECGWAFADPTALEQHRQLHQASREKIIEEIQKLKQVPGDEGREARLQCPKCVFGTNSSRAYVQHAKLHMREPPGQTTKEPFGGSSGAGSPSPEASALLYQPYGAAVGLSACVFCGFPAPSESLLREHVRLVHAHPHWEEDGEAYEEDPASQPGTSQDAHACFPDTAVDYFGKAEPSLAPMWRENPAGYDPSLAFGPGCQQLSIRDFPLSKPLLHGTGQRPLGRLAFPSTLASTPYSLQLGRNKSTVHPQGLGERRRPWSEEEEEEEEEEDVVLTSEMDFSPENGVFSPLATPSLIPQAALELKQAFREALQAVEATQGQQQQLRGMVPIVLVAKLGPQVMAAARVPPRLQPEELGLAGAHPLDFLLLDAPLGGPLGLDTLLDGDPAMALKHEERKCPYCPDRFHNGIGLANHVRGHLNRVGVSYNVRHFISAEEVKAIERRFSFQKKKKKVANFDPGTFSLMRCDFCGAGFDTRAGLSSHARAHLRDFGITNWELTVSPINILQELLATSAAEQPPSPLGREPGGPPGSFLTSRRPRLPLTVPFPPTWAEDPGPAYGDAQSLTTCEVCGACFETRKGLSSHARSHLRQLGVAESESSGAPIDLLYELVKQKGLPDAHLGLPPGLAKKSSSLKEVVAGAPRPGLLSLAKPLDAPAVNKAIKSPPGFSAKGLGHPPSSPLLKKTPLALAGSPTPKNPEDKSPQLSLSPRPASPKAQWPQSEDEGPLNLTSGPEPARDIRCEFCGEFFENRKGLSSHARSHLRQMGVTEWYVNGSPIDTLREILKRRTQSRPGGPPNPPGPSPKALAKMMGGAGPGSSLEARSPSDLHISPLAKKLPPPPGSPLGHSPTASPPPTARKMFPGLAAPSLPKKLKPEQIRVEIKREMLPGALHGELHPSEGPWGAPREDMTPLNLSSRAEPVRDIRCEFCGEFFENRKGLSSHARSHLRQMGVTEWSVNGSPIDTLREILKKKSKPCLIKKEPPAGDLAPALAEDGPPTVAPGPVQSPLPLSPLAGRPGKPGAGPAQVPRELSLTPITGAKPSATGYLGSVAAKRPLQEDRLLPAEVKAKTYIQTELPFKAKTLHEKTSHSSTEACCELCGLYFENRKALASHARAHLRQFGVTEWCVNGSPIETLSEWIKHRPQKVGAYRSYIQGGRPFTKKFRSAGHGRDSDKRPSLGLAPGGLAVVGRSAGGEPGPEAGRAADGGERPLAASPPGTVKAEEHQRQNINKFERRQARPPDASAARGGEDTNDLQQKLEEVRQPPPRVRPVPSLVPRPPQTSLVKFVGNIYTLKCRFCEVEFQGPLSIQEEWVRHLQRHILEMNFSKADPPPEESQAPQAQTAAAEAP
T2 sequence (Q96SW2 whole entry, the tested form may be a part): as the sequence (Q96SW2 whole entry, the tested form may be a part) above
T2 sequence (Q16531 whole entry partner, the tested form may be a part): as the sequence (Q16531 whole entry partner, the tested form may be a part) above
Outline: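 293T cells stably carrying a single-copy HiBit-WIZ fusion were exposed to compounds for about 18 hours at 37° C., top concentration 25 μM, 10-point 5-fold series. Lysates were complemented with LgBit and luminescence was read. Amax is the DMSO-normalized, curve-fitted percentage of WIZ-HiBit remaining at 25 uM.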

Structure (SMILES): CCN1CCCC[C@@H]1COc1ccc2c(c1)CN(C1CCC(=O)NC1=O)C2=O (mixture of isomers) [Comparative Example 1, 3-(5-(((R)-1-ethylpiperidin-2-yl)methoxy)-1-oxoisoindolin-2-yl)piperidine-2,6-dione, reference compound]
- HbF Amax (Fetal Hemoglobin (HbF)): 64.1%
- SALL4 Amax (SALL4): 51.51%
- DC50 (SALL4): 160 nM

Structure (SMILES): O=C1CCC(N2Cc3cc(OC[C@H]4CCCCN4CC4CC4)ccc3C2=O)C(=O)N1 (stereo partly drawn) [Comparative Example 3, 3-(5-(((R)-1-(cyclopropylmethyl)piperidin-2-yl)methoxy)-1-oxoisoindolin-2-yl)piperidine-2,6-dione, reference compound]
- SALL4 Amax (SALL4): 52.88%
- DC50 (SALL4): 130 nM

Structure (SMILES): O=C1CCC(N2Cc3cc(O[C@@H]4CCCN(CC5CC5)C4)ccc3C2=O)C(=O)N1 (stereo partly drawn) [Example 13, 3-(5-(((R)-1-(cyclopropylmethyl)piperidin-3-yl)oxy)-1-oxoisoindolin-2-yl)piperidine-2,6-dione]
- remaining activity at 25 µM (WIZ; HEK-293T; DMSO-normalized, curve-fitted percentage of WIZ-HiBit remaining at 25 uM; read-out: WIZ Amax): 27.6%
- Dmax at 25 µM (WIZ; HEK-293T; at 25 uM, 100 − Amax; read-out: % degradation of WIZ (100 − Amax)): 72.4%
- DC50 (WIZ; WIZ HiBit assay in 293T cells, about 18 hours, 10-point 5-fold dilution, top 25 μM; read-out: WIZ AC50): 14 nM
- DC50 (WIZ; updated arithmatic mean over the number of repeats specified, assay of Example 89; read-out: WIZ AC50): 21 nM
- SALL4 Amax (SALL4): 70.82%
- DC50 (SALL4): 140 nM

Structure (SMILES): CCN1C[C@H](Oc2ccc3c(c2)CN(C2CCC(=O)NC2=O)C3=O)CC[C@@H]1C (stereo partly drawn) [Example 41, 3-(5-(((3R,6S)-1-ethyl-6-methylpiperidin-3-yl)oxy)-1-oxoisoindolin-2-yl)piperidine-2,6-dione]
- Dmax (WIZ; HEK-293T, read-out: % degradation of WIZ (100 − Amax)): 88.6%
- remaining activity at 25 µM (WIZ; HEK-293T, read-out: WIZ Amax): 11.4%
- DC50 (WIZ; read-out: WIZ AC50; WIZ HiBit assay in 293T cells, about 18 hours, 10-point 5-fold dilution, top 25 μM): 0.14 nM
- HbF Amax (Fetal Hemoglobin (HbF)): 73.1%
